The values below are quoted from earlier work in patent US20250381202A1, “PRODRUG KIT FOR MULTI-PRONGED CHEMOTHERAPY” (priority 2022, published 2025).

Like-named read-outs stand apart in the source and are kept apart here.

For the data set the following is noted: in vivo tumor model, area under the curve until the drug concentration reaches zero.

On to `COc1cccc2c1C(=O)c1c(O)c3c(c(O)c1C2=O)C[C@@](O)(C(=O)CO)C[C@@H]3O[C@H]1C[C@H](N)[C@H](O)[C@H](C)O1` [doxorubicin, Doxorubicin], for which the AUC0-t was 80.9 µg·min/mL (In blood) and 33.4 µg·min/mL (Tumor Mean PK).
